Assay in all cases: growth of human tumour cells (NCI), 48 h
Test [1] has as its system IGROV1 ovarian.
Test [2] relates to BT-549 breast.
Test [3] concerns OVCAR-4 ovarian.
In test [4] the test system is NCI-H226 lung.
For test [5], the system named is RPMI-8226 leukemia.
Test [6] deals with MDA-MB-231 breast.
The test system of test [7] is T-47D breast.
For test [8], the system named is NCI/ADR-RES ovarian.
Test [9] relates to COLO 205 colon.
In test [10] the test system is SF-539 CNS.
The test system of test [11] is LOX IMVI melanoma.
The subject of test [12] is A549 NSCLC.
Test [13] relates to 786-0 renal.
For test [14], the system named is SF-295 CNS.
Test [15] relates to EKVX NSCLC.

The values that follow come from PubChem BioAssay (NCI).

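1) Cells in 96-well plates. 2) Compound, 48 h, 5 concentrations. 3) Linear interpolation between surrounding doses. 4) Unreached endpoint = highest concentration. TGI: concentration producing complete growth inhibition.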

For the molecule `CC(=O)NC1CCC(NC(=O)OC(C)(C)C)C(NC(=O)OC(C)(C)C)C1` (stereo not drawn), the TGI in test [1], in [2], in test [3], in [4], in test [5] and in [6] was greater than 100 µM in each case. Further, the TGI in test [7], in [8], in test [9], in test [10], in [11] and in [12] was greater than 100 µM in each case. For the same molecule, the TGI in [13] and in test [14] was greater than 100 µM each time.

Consider `CC1C=C(NCC2(CO)CCC2)NC(N)=N1` (stereo not drawn), for which the TGI in test [15], in test [1], in test [2], in test [3], in test [4] and in test [5] was greater than 100 µM each time. Besides, the TGI in test [6], in test [7], in test [8], in test [9], in test [11] and in [12] was greater than 100 µM in each case. The TGI in [13] and in test [14] was greater than 100 µM each time.

`CN(C)CCCNC(=O)CNC(=O)c1cc(NC(=O)c2cc(NC(=O)c3cc(NC(=O)CCNC(=O)c4cc(NC(=O)c5cc(NC(=O)c6nccn6C)cn5C)cn4C)cn3C)cn2C)cn1C`: the TGI in test [15], in test [1], in test [3], in test [4], in [5] and in test [6] was greater than 100 µM throughout. Moreover, the TGI in test [7], in test [8], in [9], in [10], in [11] and in test [12] was greater than 100 µM throughout. The TGI in test [13] and in test [14] was greater than 100 µM each time.

Regarding `Cn1c2c(c3ccccc31)CC(=O)N1CCCCC1C21OCCO1` (stereo not drawn), the TGI in test [15], in [1], in test [2], in test [3], in test [4] and in [5] was greater than 100 µM throughout. Further, the TGI in test [6], in test [7], in test [8], in test [9], in test [12] and in test [13] was greater than 100 µM throughout. The TGI in test [14] was greater than 100 µM.

`CCCCCC(/C=N/NC(N)=S)C(O)(C(F)(F)F)C(F)(F)F` (stereo not drawn): the TGI in [15], in test [1], in test [2], in test [3], in [4] and in [6] was greater than 10 µM each time. Further, the TGI in test [7], in [8], in test [9], in [10], in [11] and in [12] was greater than 10 µM throughout. In addition, the TGI in test [13] and in test [14] was greater than 10 µM each time.

With `CC1(C)SC2C(NC(=O)Cc3ccccc3)C(=O)N2C1C(=O)O` (stereo not drawn), the TGI in [15], in test [1], in test [2], in test [3], in [4] and in [6] was greater than 100 µM each time. Further, the TGI in [7], in [8], in [9], in test [10], in test [11] and in test [12] was greater than 100 µM throughout. The TGI in test [13] and in [14] was greater than 100 µM in each case.

As to `CCOC(=O)NC(N(C)C(C(C)C)P(=O)(OCC)OCC)(C(F)(F)F)C(F)(F)F` (stereo not drawn), the TGI in test [15], in test [1], in test [3], in test [4], in test [5] and in test [6] was greater than 100 µM in each case. Also, the TGI in test [7], in test [8], in [9], in [10], in test [11] and in [12] was greater than 100 µM in each case. Further, the TGI in test [13] and in test [14] was greater than 100 µM in each case.

Turning to `CCOC(=O)/C=C/[C@H](O[Si](c1ccccc1)(c1ccccc1)c1ccccc1)C(C)(C)C`, the TGI in test [15] is greater than 31.6 µM; in [1] it was greater than 31.6 µM; in [3], greater than 31.6 µM; in [4], greater than 31.6 µM; in test [5], greater than 29 µM; in test [6], greater than 31.6 µM. In addition, the TGI in test [7], in test [8], in [9], in [10], in [11] and in [12] was greater than 31.6 µM each time. In addition, the TGI in test [13] and in test [14] was greater than 31.6 µM each time.

Turning to `FC(F)(F)C1(C(F)(F)F)OC(Cl)(Cl)C(Cl)(Cl)O1`, the TGI in test [15], in test [1], in [2], in test [3], in test [4] and in [6] was greater than 10 µM each time. Also, the TGI in test [7], in [8], in [9], in test [10], in test [11] and in test [12] was greater than 10 µM in each case. The TGI in test [13] and in test [14] was greater than 10 µM in each case.

On to `COc1ccc(/C=N/n2c(C)n[nH]c2=O)cc1`, for which the TGI in test [15], in [2], in [3], in test [4], in [5] and in test [6] was greater than 100 µM each time. Moreover, the TGI in test [7], in [8], in [9], in test [10], in test [12] and in test [13] was greater than 100 µM throughout. For the same molecule, the TGI in test [14] is greater than 100 µM.
